In patent publication US12187773B2, “Modified GIP peptide analogues” (Antag Therapeutics ApS, priority 2018, dated 2025):
*1 amine or outer side, *2 acyl side, *3 side chain or, on linkers, in order; H or OH if unused. Where a SMILES comes first, the peptide text is derived from it. Side-chain parts run from the residue outwards. The star is where a group is joined. C16 diacid = O=C(O)CCCCCCCCCCCCCCC(=O)*; γGlu = O=C(O)[C@H](CCC(=O)[*:2])N[*:1]; AEEA = NCCOCCOCC(=O)O

How the values were obtained:
Type in all cases: cell-based
human GIP receptor [1] = target: T1, human GIP receptor (Homo sapiens, UniProt P48546); test: cAMP accumulation, antagonism (DiscoveRx HitHunter cAMP XS assay); design: host or cells: COS-7 (transient, calcium phosphate; pCMV-Script vector)
T1 sequence (P48546 22-466): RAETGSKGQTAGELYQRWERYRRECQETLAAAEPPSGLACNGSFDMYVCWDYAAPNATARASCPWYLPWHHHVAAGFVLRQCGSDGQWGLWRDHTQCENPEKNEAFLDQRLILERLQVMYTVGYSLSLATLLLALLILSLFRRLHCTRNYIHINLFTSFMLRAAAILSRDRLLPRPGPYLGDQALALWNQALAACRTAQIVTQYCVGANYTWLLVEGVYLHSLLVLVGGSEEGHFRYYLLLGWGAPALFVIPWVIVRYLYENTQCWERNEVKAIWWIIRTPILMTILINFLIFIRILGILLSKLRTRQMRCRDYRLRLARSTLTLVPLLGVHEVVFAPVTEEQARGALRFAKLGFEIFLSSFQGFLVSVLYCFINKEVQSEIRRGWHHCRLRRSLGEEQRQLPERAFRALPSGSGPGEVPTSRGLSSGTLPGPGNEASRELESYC
Outline: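 Transiently transfected COS-7 cells expressing human GIP receptor, pretreated with 1 mM IBMX in HBS 30 min at 37 °C. Agonism: ligand 30 min at 37 °C; antagonism: 10 min antagonist preincubation, then GIP at 50-80% maximal response for 20 min. cAMP measured by HitHunter cAMP XS.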

GLP1 receptor (GLP1R) = target: T2, GLP1 receptor (GLP1R) (Homo sapiens, UniProt P43220); test: cAMP assay - selectivity, antagonism at GLP1 receptor; conditions: Table 3A; for GLP-1R, Antagonism, %inhib: COS-7 cells; for GLP-1R, Antagonism, index: selectivity index versus GIPR
T2 construct: expressed in transfected cells; host or cells: COS-7 (transient)
T2 sequence (P43220 24-463, species assumed): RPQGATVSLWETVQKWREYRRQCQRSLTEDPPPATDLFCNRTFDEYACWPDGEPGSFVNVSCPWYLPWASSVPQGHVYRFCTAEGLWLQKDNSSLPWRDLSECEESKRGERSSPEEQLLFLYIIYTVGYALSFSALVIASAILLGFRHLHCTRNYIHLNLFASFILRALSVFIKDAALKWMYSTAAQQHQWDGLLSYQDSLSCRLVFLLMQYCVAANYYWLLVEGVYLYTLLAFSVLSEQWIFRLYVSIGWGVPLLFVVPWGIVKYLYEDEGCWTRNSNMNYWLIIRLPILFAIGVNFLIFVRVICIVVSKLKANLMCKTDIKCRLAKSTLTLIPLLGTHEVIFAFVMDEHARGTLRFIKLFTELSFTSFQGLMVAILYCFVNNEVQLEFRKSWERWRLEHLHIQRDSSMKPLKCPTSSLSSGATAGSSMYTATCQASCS
Protocol: (§1) Transient transfected COS-7 cells expressing the either of the GLP1 receptor (GLP1R), GLP2 receptor (GLP2R), glucagon receptor (GcgR) or secretin receptor (SCTR) were seeded in white 96-well plates with a density of 3.5*10^4/well. The day after, the cells were washed twice with Hepes buffered saline (HBS) buffer and incubated with HBS and 1 mM 3-isobutyl-1-methylxanthine (IBMX) for 30 min at 37° C. To test for agonistic properties, ligands were added and incubated for 30 min at 37° C. In order to test for antagonistic properties, the cells were preincubated with the antagonists for 10 min prior to the addition the natural agonist for the expressed receptor (GLP1 for GLP1R expressing cells, GLP2 for GLP2R expressing cells, glucagon for the GcgR and secretin for the SCTR) and subsequent incubated for 20 additional min. […] The HitHunter™ cAMP XS assay (DiscoveRx) was carried out according to the manufacturer's instructions.

glucagon receptor (GcgR) = target: T3, glucagon receptor (GcgR) (Homo sapiens, UniProt P47871); test: cAMP assay - selectivity, antagonism at glucagon receptor; conditions: Table 3A; COS-7 cells; agonist glucagon at 50-80% of maximal cAMP
T3 construct: expressed in transfected cells; host or cells: COS-7 (transient)
T3 sequence (P47871 26-477, species assumed): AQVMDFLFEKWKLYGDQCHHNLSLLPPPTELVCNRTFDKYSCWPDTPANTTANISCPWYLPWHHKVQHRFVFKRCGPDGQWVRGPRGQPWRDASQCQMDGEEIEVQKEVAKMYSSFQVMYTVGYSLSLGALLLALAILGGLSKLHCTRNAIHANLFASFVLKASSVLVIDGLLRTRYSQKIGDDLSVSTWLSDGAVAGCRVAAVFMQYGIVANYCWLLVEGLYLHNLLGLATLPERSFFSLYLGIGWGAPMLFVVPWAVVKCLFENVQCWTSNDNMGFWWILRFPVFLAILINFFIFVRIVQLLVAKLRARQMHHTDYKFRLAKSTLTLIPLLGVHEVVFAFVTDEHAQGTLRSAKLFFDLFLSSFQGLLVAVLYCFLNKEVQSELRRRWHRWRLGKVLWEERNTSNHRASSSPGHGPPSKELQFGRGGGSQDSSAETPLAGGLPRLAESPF
Protocol: as §1

GLP2 receptor (GLP2R) = target: T4, GLP2 receptor (GLP2R) (Homo sapiens, UniProt O95838); test: cAMP assay - selectivity, antagonism at GLP2 receptor; conditions: Table 3B; COS-7 cells; agonist GLP2
T4 construct: expressed in transfected cells; host or cells: COS-7 (transient)
T4 sequence (O95838 1-553): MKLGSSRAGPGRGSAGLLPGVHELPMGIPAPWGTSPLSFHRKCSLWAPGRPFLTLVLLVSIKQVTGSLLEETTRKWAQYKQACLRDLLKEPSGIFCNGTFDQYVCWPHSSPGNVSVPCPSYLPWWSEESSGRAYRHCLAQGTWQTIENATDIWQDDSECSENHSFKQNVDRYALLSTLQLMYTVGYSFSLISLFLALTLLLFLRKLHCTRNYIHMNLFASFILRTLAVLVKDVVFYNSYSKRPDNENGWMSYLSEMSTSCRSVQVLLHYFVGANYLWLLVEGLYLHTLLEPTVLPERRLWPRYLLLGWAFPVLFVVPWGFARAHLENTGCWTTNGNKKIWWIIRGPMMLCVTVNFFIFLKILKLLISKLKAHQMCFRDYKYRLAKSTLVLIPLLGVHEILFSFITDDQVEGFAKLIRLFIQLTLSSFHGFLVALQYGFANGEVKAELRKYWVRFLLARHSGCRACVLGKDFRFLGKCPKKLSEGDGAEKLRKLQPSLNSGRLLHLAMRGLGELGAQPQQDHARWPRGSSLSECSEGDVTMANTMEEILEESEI
Protocol: as §1

secretin receptor (SCTR) = target: T5, secretin receptor (SCTR) (Homo sapiens, UniProt P47872); test: cAMP assay - selectivity, antagonism at secretin receptor; conditions: Table 3B; COS-7 cells; agonist secretin
T5 construct: expressed in transfected cells; host or cells: COS-7 (transient)
T5 sequence (P47872 23-440, species assumed): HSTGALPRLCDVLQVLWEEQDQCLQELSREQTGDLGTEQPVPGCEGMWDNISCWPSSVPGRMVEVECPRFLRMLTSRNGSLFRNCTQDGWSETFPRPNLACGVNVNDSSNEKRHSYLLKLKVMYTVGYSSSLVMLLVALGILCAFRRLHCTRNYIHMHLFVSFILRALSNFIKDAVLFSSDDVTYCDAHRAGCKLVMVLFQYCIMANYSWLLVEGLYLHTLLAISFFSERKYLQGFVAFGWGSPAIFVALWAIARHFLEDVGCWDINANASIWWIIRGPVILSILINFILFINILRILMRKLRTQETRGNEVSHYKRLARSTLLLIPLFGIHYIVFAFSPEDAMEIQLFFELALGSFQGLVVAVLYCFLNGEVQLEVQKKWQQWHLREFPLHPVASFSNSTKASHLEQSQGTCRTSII
Protocol: as §1

human GIP receptor [2] = target: T1, human GIP receptor; test: cAMP agonism (CisBio cAMP Dynamic 2 HTRF assay); conditions: HEK293, read-out: cAMP agonism, % Efficacy, Table 1C, HEK-293 cells
Protocol: To test for agonistic properties at the GIP receptor, compounds were diluted and added to cells as described above and incubated for 30 min at 37° C. The resulting increase in intracellular cAMP was determined using the CisBio cAMP Dynamic 2 HTRF Assay Kit as described above.

human GIP receptor [3] = target: T1, human GIP receptor; test: cAMP antagonism (CisBio cAMP Dynamic 2 HTRF assay); design: pCMV-Script vector
Outline: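 Four-parameter fits of cAMP dose-response gave pIC50. cAMP fall was quantified by HTRF competition, ratio 665/620 nm after 60 min at room temperature, against a cAMP standard curve.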

human GIP receptor [4] = target: T1, human GIP receptor; test: cAMP accumulation, agonism (DiscoveRx HitHunter cAMP XS assay); design: host or cells: COS-7 (transient, calcium phosphate; pCMV-Script vector); conditions: COS-7, read-out: cAMP agonism, Emax
Outline: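 cAMP accumulation measured by HitHunter cAMP XS in COS-7 cells transiently expressing human GIP receptor, after 30 min in HBS with 1 mM IBMX at 37 °C. Antagonists preincubated 10 min before GIP giving 50-80% of maximum, then 20 min more; agonist mode used 30 min ligand exposure.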

[5] = GIPR, Antagonism, nM, Table 3C, CisBio assay
[6] = Table 1C, CisBio, HEK-293 cells
[7] = cAMP antagonism, nM (IC50), Table 1C, CisBio, HEK-293 cells, agonist GIP1-42 at EC50

## CC[C@H](C)[C@H](NC(=O)[C@H](CO)NC(=O)[C@H](Cc1ccc(O)cc1)NC(=O)[C@H](CC(=O)O)NC(=O)[C@H](CO)NC(=O)[C@@H](NC(=O)[C@@H](N)Cc1ccccc1)[C@@H](C)CC)C(=O)N[C@@H](C)C(=O)N[C@@H](CCSC)C(=O)N[C@@H](CC(=O)O)C(=O)N[C@@H](CCCCN)C(=O)N[C@H](C(=O)N[C@@H](CCCCNC(=O)CCCCCCCCCCCCCCC(=O)O)C(=O)N[C@@H](CCC(N)=O)C(=O)N[C@@H](CCC(N)=O)C(=O)N[C@@H](CC(=O)O)C(=O)N[C@@H](Cc1ccccc1)C(=O)N[C@H](C(=O)N[C@@H](CC(N)=O)C(=O)N[C@@H](Cc1c[nH]c2ccccc12)C(=O)N[C@@H](CC(C)C)C(=O)N[C@@H](CC(C)C)C(=O)N[C@@H](C)C(=O)N[C@@H](CCC(N)=O)C(=O)N[C@@H](CCCCN)C(N)=O)C(C)C)[C@@H](C)CC [AT353] (H-FISDYSIAMDKIK(C16 diacid)QQDFVNWLLAQK-NH2; N-terminus assumed)
Human GIP receptor [1]; GIPR, Antagonism, nM, Table 3A/3B, DiscoveRx, COS-7 cells
  IC50: 9 nM
Human GIP receptor [1]; IC50-value (GIPR antagonism), Examples 1 and 2, values of Tables 1B and 2
  IC50: 9 nM
Human GIP receptor [1]; Table 2, truncated GIP antagonists
  cAMP antagonism, % inhib: 100.0%
Human GIP receptor [1]; Table 3A/3B, DiscoveRx, COS-7 cells
  GIPR, Antagonism, % inhib: 100.0%
Human GIP receptor [1]; cAMP antagonism, nM (IC50), Table 2, truncated GIP antagonists
  IC50: 9 nM
GLP1 receptor (GLP1R)
  GLP-1R, Antagonism, %inhib: 43%
  GLP-1R, Antagonism, index: 44
Glucagon receptor (GcgR)
  Glucagon R, Antagonism, nM: No antagonism
GLP2 receptor (GLP2R)
  GLP-2R, Antagonism: No antagonism
Secretin receptor (SCTR)
  Secretin R, Antagonism: No antagonism
Human GIP receptor [2]
  Emax: 0%
Human GIP receptor [3]; [5]
  IC50: 25.1 nM
Human GIP receptor [3]; [6]
  cAMP antagonism, % inhib: 90%
Human GIP receptor [3]; Table 3C, CisBio assay
  GIPR, Antagonism, % inhib: 90%
Human GIP receptor [3]; [7]
  IC50: 25.1 nM

## CC[C@H](C)[C@H](NC(=O)[C@H](CO)NC(=O)[C@H](Cc1ccc(O)cc1)NC(=O)[C@H](CC(=O)O)NC(=O)[C@H](CO)NC(=O)[C@@H](NC(=O)[C@H](Cc1ccccc1)NC(=O)[C@@H](NC(=O)CNC(=O)[C@@H](N)CO)[C@@H](C)O)[C@@H](C)CC)C(=O)N[C@@H](C)C(=O)N[C@@H](CCSC)C(=O)N[C@@H](CC(=O)O)C(=O)N[C@@H](CCCNC(=N)N)C(=O)N[C@H](C(=O)N[C@@H](CCCCNC(=O)COCCOCCNC(=O)COCCOCCNC(=O)CC[C@H](NC(=O)CCCCCCCCCCCCCCC(=O)O)C(=O)O)C(=O)N[C@@H](CCC(N)=O)C(=O)N[C@@H](CCC(N)=O)C(=O)N[C@@H](CC(=O)O)C(=O)N[C@@H](Cc1ccccc1)C(=O)N[C@H](C(=O)N[C@@H](CC(N)=O)C(=O)N[C@@H](Cc1c[nH]c2ccccc12)C(=O)N[C@@H](CC(C)C)C(=O)N[C@@H](CC(C)C)C(=O)N[C@@H](C)C(=O)N[C@@H](CCC(N)=O)C(=O)N[C@@H](CCCNC(=N)N)C(=O)O)C(C)C)[C@@H](C)CC [AT277] (H-SGTFISDYSIAMDRIK([AEEA-AEEA-γGlu-C16 diacid])QQDFVNWLLAQR-OH; N-terminus assumed)
Human GIP receptor [1]; cAMP antagonism, nM (IC50), Table 1B, DiscoveRx, transiently transfected COS-7 cells
  IC50: 16 nM
GLP1 receptor (GLP1R)
  GLP-1R, Antagonism, %inhib: 68%
  GLP-1R, Antagonism, index: 561
Human GIP receptor [4]
  Emax: 9%
Glucagon receptor (GcgR)
  Glucagon R, Antagonism, nM: No antagonism
GLP2 receptor (GLP2R)
  GLP-2R, Antagonism: No antagonism
Secretin receptor (SCTR)
  Secretin R, Antagonism: No antagonism
Human GIP receptor [2]
  Emax: 8%
Human GIP receptor [3]; [5]
  IC50: 31.6 nM
Human GIP receptor [3]; [6]
  cAMP antagonism, % inhib: 84%
Human GIP receptor [3]; Table 3C, CisBio assay
  GIPR, Antagonism, % inhib: 84%
Human GIP receptor [3]; [7]
  IC50: 31.6 nM
